Data: patent US20250325684A1, “POTENT ANTI-CANCER CYCLOTIDES” (University of Southern California, priority 2022, published 2025)
Numbered stars: 1 amine (or outer) side, 2 acyl side, 3 side chain; on linkers, the order of the positions; unused ones are H or OH. Bridge positions count the residues as written; N and C are the ends. Square brackets hold non-standard residues; d marks the D form. Peptide text beside a SMILES is read from it. I, II: the chains in the order shown. X1 = O=C(CCc1cn(CCOCCOCCOCCC(=O)[*:2])nn1)[*:1]; isoGln = NC(=O)[C@H](CCC(=O)[*:2])N[*:1]

Columns and labels:
NCl-H1395 = assay: MTT cell viability, NCl-H1395 cells; format: cell-based, human; conditions: NCl-H1395 lung adenocarcinoma, p53 WT
Protocol: (§1) Cell viability assay in several human cancer cell lines (See Tables 1 to 10). Cell lines were cultured in RPMI 1640 (or recommended medium when indicated) medium supplemented with 10% fetal calf serum, penicillin (50 IU/mL) and streptomycin ([…]) at 37° C. in 5% CO2. Cell viability studies was carried using the MTT (3-(4,5-dimethylthiazol-2-yl)-2,5-diphenyltetrazolium bromide) assay as previously described (31). Briefly, ≈2×10^3 CRC cells were be seeded in 96-well microtiter plates in 100 μL RPMI 1640 in the presence of 10% calf serum. […] After 1 h, 210 μL/well of full complemented media was added, the cells were grown for 48 h and then treated with 20 μL of a solution of MTT (5 mg/mL) for 2 h. The medium was discarded and DMSO ([…]) was added to each well and incubated with gentle shaking for 20 min at room temperature. The absorbance at 595 nm of the solution is analyzed using a Tecan Genios Multifunctional Microplate Reader (Tecan System Inc) and the background at 670 nm subtracted. RNA-Seq analysis was performed using state-of-the-art bioinformatics tools. Briefly, raw RNA-Seq reads were mapped to human genome (hg38) using STAR aligner (v2.7.3a). Gencode Release 36 reference was used for annotation. Transcript and gene expression levels were quantified using the IsoEM (37) with default parameters. […]
(§2) Cell viability was evaluated using the MTT assay as described above.

MOLM-13 = assay: MTT cell viability, MOLM-13 cells; format: cell-based, human; conditions: MOLM-13 adult acute myeloid leukemia, p53 WT
Protocol: (§3) Cell viability assay in several human cancer cell lines (See Tables 1 to 10). Cell lines were cultured in RPMI 1640 (or recommended medium when indicated) medium supplemented with 10% fetal calf serum, penicillin (50 IU/mL) and streptomycin ([…]) at 37° C. in 5% CO2. Cell viability studies was carried using the MTT (3-(4,5-dimethylthiazol-2-yl)-2,5-diphenyltetrazolium bromide) assay as previously described (31). Briefly, ≈2×10^3 CRC cells were be seeded in 96-well microtiter plates in 100 μL RPMI 1640 in the presence of 10% calf serum. […] After 1 h, 210 μL/well of full complemented media was added, the cells were grown for 48 h and then treated with 20 μL of a solution of MTT (5 mg/mL) for 2 h. The medium was discarded and DMSO ([…]) was added to each well and incubated with gentle shaking for 20 min at room temperature. The absorbance at 595 nm of the solution is analyzed using a Tecan Genios Multifunctional Microplate Reader (Tecan System Inc) and the background at 670 nm subtracted. RNA-Seq analysis was performed using state-of-the-art bioinformatics tools. Briefly, raw RNA-Seq reads were mapped to human genome (hg38) using STAR aligner (v2.7.3a). Gencode Release 36 reference was used for annotation. Transcript and gene expression levels were quantified using the IsoEM (37) with default parameters. Counts per million (CPM) method is used for normalization. Differential expression was done using DESeq2 with default parameters. Genes involved in different biological pathways (human) were searched from Geneontology (http://geneontology.org/). Bioinformatics results can be validated by using Partek Flow (v10.0.21.0912), a bioinformatics pipeline developed by Zymo Research (https://www.zymoresearch.com/).
as §2

LLC-1 = assay: MTT cell viability, LLC-1 cells; format: cell-based; conditions: LLC-1 murine lung cancer, p53 WT
Protocol: as §1, §2

NCl-H292 = assay: MTT cell viability, NCl-H292 cells; format: cell-based, human; conditions: NCl-H292 lung mucoepidermoid carcinoma, p53 WT
Protocol: as §1, §2

NCl-H1299 = assay: MTT cell viability, NCl-H1299 cells; format: cell-based, human; conditions: NCl-H1299 lung large cell carcinoma, p53 Null
Protocol: as §3, §2

CT26 = assay: MTT cell viability, CT26 cells; format: cell-based; conditions: CT26 murine colon cancer, p53 WT
Protocol: as §1, §2

DLD-1 = assay: MTT cell viability, DLD-1 cells; format: cell-based, human; conditions: DLD-1 colon adenocarcinoma, p53 Mutant
Protocol: as §1, §2

MSCLC 494 = assay: MTT cell viability, MSCLC 494 cells; format: cell-based; conditions: MSCLC 494 murine small cell lung cancer
Protocol: as §3, §2

HCT116^−/− = assay: MTT cell viability, HCT116 p53-null cells; format: cell-based, human; conditions: HCT116^−/− colon carcinoma, p53 Null; MTT; read-out: EC50
Protocol: as §1, §2

HCT116^+/+ = assay: MTT cell viability, HCT116 p53 wild-type cells; format: cell-based, human; conditions: HCT116^+/+ colon carcinoma, p53 WT; MTT; read-out: EC50
Protocol: as §3, §2

HCT116 xenografts = assay: HCT116 xenograft in nude mice; format: in vivo, mouse; conditions: two murine models of colorectal carcinoma
Protocol: Mice xenografts studies. HCT116 p53^−/− and CT26 xenografts were established by injecting 100 uL suspension of basal RPMI containing 0.5×10^6 cells into the rear right flanks of female nude mice (nu/nu) mice (HCT116) or Balb/C (CT26). When tumors reached an average volume of ≈100 mm^3, cohorts (n≥4) were treated with vehicle (5% dextrose in water, D5W), MCo-52-2-cTAT (40 mg/kg), or Nutlin-3 (20 mg/kg, […]) once daily for up to 38 days by intravenous injection (MCo-52-2-cTAT and vehicle) or by intraperitoneal administration (Nutlin-3) for HCT116 xenografts; or with vehicle (D5W), MCo-52-2-cTAT (25 mg/kg) three times per week by intraperitoneal injection. Compounds were prepared in a D5W at a final volume of 50 μL (peptide) or 100 μL (Nutlin-3). […] Individual weights were recorded thrice weekly, comparing the control and treatment groups as an additional indicator of tolerance of drug treatment as well as providing the average weight for calculation of drug dosing. Tumor size was measured with calipers. Tumor volume was calculated by measuring tumor size in two dimensions and applying those measurements to the calculation V=d^2×D/2, where d and D equal to the smaller and larger of the two measurements, respectively. […]

[1] = molecular target: T1, E3 ligase activity of Hdm2 (Homo sapiens, UniProt Q00987); assay: E3 ligase activity of Hdm2 on p53, commercial kit; format: biochemical; conditions: in vitro, Hdm2 around 1 μM (FIG. 4B)
T1 construct: purchased
T1 sequence (Q00987 whole entry): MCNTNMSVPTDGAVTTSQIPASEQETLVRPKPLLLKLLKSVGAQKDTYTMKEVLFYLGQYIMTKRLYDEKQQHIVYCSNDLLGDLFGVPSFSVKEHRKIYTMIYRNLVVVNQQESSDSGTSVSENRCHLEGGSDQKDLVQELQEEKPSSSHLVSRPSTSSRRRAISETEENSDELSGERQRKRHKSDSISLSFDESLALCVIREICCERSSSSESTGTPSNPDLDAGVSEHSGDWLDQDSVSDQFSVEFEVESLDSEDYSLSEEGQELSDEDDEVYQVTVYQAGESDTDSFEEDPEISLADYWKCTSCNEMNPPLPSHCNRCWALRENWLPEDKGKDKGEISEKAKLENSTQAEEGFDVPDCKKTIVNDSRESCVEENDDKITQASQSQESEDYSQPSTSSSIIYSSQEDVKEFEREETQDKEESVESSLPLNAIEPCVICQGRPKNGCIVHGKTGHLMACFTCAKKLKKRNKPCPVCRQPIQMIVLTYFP
Protocol: FIGS. 4A-4B: Structure and E3 ligase inhibitory activity of cyclotide MCo-52-2. (FIG. 4A) Structures of the heterodimer formed by the RINGs domain of Hdm2 and HdmX and the complex of cyclotide MCo-52-2 with the RING domain of HdmX, the interacting residues in loops 1 and 5 are shown in light grey (on the left). (FIG. 4B) Inhibitory E3 ligase activity of cyclotide of Hdm2 on p53. The concentration of Hdm2 in the assay was around 1 μM as provided in the commercial kit.
Cyclotide MCo-52-2-cTAT efficiently antagonizes the RING-mediated dimerization of Hdm2/HdmX inhibiting its E3 ligase activity. Applicant developed a cell-based screening of genetically-encoded libraries of cyclotides for Hdm2/HdmX antagonists that has allowed the selection of a bioactive cyclotide, MCo-52-2-cTAT. […] This cyclotide can be efficiently produced by chemical synthesis using solid-phase peptide synthesis (SPPS) or heterologous expression systems (28). Heterologous expression of cyclotides allows introduction of NMR-active isotopes, such as ^13C and ^15N to study the structure of this cyclotide and how interacts with the RING-domains of Hdm2 and HdmX. Using this approach, Applicant solved the structure of cyclotide MCo-52-2 complexed to the RING domain of HdmX in solution (FIG. 4A).

| Compound | EC50 (NCl-H1395) | EC50 (MOLM-13) | EC50 (LLC-1) | EC50 (NCl-H292) | EC50 (NCl-H1299) | EC50 (CT26) | EC50 (DLD-1) | EC50 (MSCLC 494) | EC50 (HCT116^−/−) | EC50 (HCT116^+/+) | p53 expression on tumor tissue (western blotting) (HCT116 xenografts) | Inhibition of the E3 ligase activity of Hdm2 [1] |
| --- | --- | --- | --- | --- | --- | --- | --- | --- | --- | --- | --- | --- |
| COc1ccc(C2=N[C@@H](c3ccc(Cl)cc3)[C@@H](c3ccc(Cl)cc3)N2C(=O)N2CCNC(=O)C2)c(OC(C)C)c1 [Nutlin 3A] | 23.1 ± 5.6 µM | 1.4 ± 0.1 µM | 9.4 ± 1.2 µM | 19.2 ± 2.9 µM | > 100 µM | 9.8 ± 1.2 µM | > 100 µM | > 100 µM | – | – | – | – |
| N=C(N)NCCC[C@@H]1NC(=O)[C@@H](CCCNC(=N)N)NC(=O)[C@H](CCCCN)NC(=O)[C@@H](N)CCCCNC(=O)CC[C@@H](C(=O)O)NC(=O)[C@@H](CCCNC(=N)N)NC(=O)[C@H](CCCNC(=N)N)NC(=O)[C@@H](CCCCN)NC(=O)[C@H](CCCCN)NC(=O)[C@@H](CCCNC(=N)N)NC(=O)CNC(=O)[C@@H](CCCNC(=N)N)NC1=O [cTAT] (H-KK[dR]R[dR]G[dR]K[dK]R[dR]E-OH; lactam 1-12; N-terminus and C-terminus assumed) | > 100 µM | > 100 µM | > 100 µM | > 100 µM | > 100 µM | > 100 µM | > 100 µM | > 100 µM | > 100 µM | > 100 µM | – | – |
| I: cyclo(ACICRHDSYCGSGSDGGVCPNLYLLCRRDKDCPG) / II: KK[dR]R[dR]G[dR]K[dK]R[dR][isoGln] (disulfide I:2-I:19, I:4-I:26, I:10-I:32; linker I:30-II:N via X1; lactam II:1-II:C) [Cyclotide 52-2-cTAT] | – | – | – | – | – | – | – | – | – | 10.9 ± 1.3 µM | stabilizes p53 expression on tumor tissue | specifically inhibit the E3 ligase activity of Hdm2 in vitro in a dose-dependent fashion |
